Test results: PMC11407620, “Repurposing auranofin and meclofenamic acid as energy-metabolism inhibitors and anti-cancer drugs” (PLOS ONE, 2024)

Tests used:
MDA-MB-468 cells = assay: OxPhos flux (oligomycin-sensitive respiration) in intact cells; type: cell-based, human; conditions: +MA 50 μM, 24 h
Procedure: For oxidative phosphorylation (OxPhos) flux, cells (2–5 mg protein/mL) were incubated at 37°C in air saturated KR medium plus 5 mM glucose. To distinguish the oxygen consumption associated to OxPhos, the cells were incubated with 5 μM oligomycin (Sigma-Aldrich, MO, USA), a potent, specific, and permeable inhibitor of the mitochondrial ATP synthase. The net OxPhos rate was determined by using a Clark type electrode, as previously described and by using a high-resolution respirometer (Oroboros Instruments, Innsbruck, Austria) at 37°C. The contribution of OxPhos and glycolysis to the cellular ATP supply was determined, respectively, from the net OxPhos rate (oligomycin-sensitive respiration) multiplied by the ATP/O or P»/O2 ratio that corresponds to 2.5 or 5, and from the rate of lactate production, assuming a stoichiometry of 1 mol of ATP produced per 1 mol of lactate produced.

Rat Heart Mitochondria = assay: Oxygen consumption of isolated mitochondria; type: biochemical; conditions: 5 mM Glutamate/5 mM Malate
Procedure: Rat liver (RLM) and heart (RHM) mitochondria were isolated as described previously by differential centrifugation.
Respiration of AS-30D, liver and heart mitochondria (1 mg protein/mL) was assayed oxygraphically with a Clark-type O2 electrode in KME (120 mM KCl, 20 mM Mops, 1 mM EGTA) buffer pH 7.2 plus 2 mM KH2PO4, and different oxidizable substrates (as indicated in Results). For state 3 respiration, 600 nmol ADP were added. Mitochondria were incubated at 37°C with Aur and MA for 30–60 s before substrates were added. At the end of each respiratory measurement, dithionite was added to get the chemical zero oxygen signal.

Breast MDA-MB-468 cells = assay: Cell proliferation, 24 h drug exposure; type: cell-based, human
Procedure: (§1) All metastatic (breast MDA-MB231, MDA-MB468, cervix HeLa, prostate PC3, colorectal HCT116, COLO205, glioblastoma U373), low-metastatic (breast MCF-7) cancer and non-cancer (fibroblast 3T3, cardiomyocytes H9C2) cell lines (American Type Culture Collection, Rockville, MD, USA) used in this study were cultured in Petri dishes in 20 mL of Dulbecco’s Modified Eagle’s Medium (DMEM, Sigma, MO, USA) supplemented with 10% fetal bovine serum (Biowest, Mexico) and 10,000 U penicillin/streptomycin (Sigma-Aldrich, MO, USA). […] For growth and maintenance, cells were incubated in 5% CO2/95% air at 37°C and kept until 80–90% of confluence was reached. Then, cells were harvested, washed by centrifugation and resuspended in Krebs-Ringer buffer (KR, 125 mM NaCl, 5 mM KCl, 25 mM Hepes, 1 mM MgCl2, 1 mM KH2PO4, 1.4 mM CaCl2, pH 7.4) for further use. For experimentation, cancer cells (3–5 x 10^6 cells) were cultured in DMEM (with 25 mM glucose) for 24 h in the absence of drugs. Afterwards, old-medium was replaced with fresh DMEM medium (with 25 mM glucose) in the absence (control, non-treated cells) or in the presence of logarithmic concentrations of Aur and MA for 24 h more, under the same culture conditions described above. Viability of cultured cells was determined by the trypan blue exclusion assay. The protein concentration was determined by the Lowry method.
(§2) For cell proliferation in the presence of drugs, cancer cells (20 x 10^3 cells/well) were grown in 96-well plates containing DMEM (Sigma-Aldrich) plus 10% bovine fetal serum for 24 h. Afterwards, Aur or MA (0.01, 0.1, 10 and 100 μM) were added to the cell cultures and incubated for additional 24 h. The effect of these drugs on cell proliferation was determined in 96-well plates by the MTT (3-[4,5-dimethyl-thiazol-2-yl]-2,5-diphenyltetrazolium bromide) assay. The viability of cancer cells was > 95% after treatment with drugs.

Colorectal COLO205 cells = assay: Cell proliferation, 24 h drug exposure; type: cell-based, human
Procedure: as §1, §2

HeLa cells = assay: Glycolysis flux (lactate production) in intact cells; type: cell-based, human
Procedure: (§3) For glycolysis flux, cells (3 mg protein/mL) were incubated in KR buffer. Glycolysis was started by adding 5 mM external glucose (Sigma-Aldrich, MO, USA), and cellular samples were withdrawn after 0 and 10 min of incubation at 37°C under smooth orbital shaking. At the indicated times, the cells were rapidly mixed with 3% (w/v) ice-cold perchloric acid and centrifuged. The supernatants were neutralized with 1N KOH/100mM Tris. To rule out lactate production by glutaminolysis, cells were also incubated with 10 mM 2-deoxyglucose (Sigma-Aldrich, MO, USA). Lactate was determined by a standard method with lactate dehydrogenase (Roche, Mannheim, Germany) following the NADH formation at 340 nm.

MDA-MB-231 cells = assay: as above; type: cell-based, human; conditions: +Aur 0.8 μM, 24 h
Procedure: as §3

[1] = test system: HeLa, MDA-MB-231 and MDA-MB-468 cells; assay: Cell migration, wound healing assay; type: cell-based, human; conditions: Aur at IC50 (1.7, 0.8, 2 μM); 24 h
Procedure: The wound healing assay was performed for cell migration detection. In petri dishes with full DMEM, cancer cells (5 x 10^6 cells/well) were cultured at 37°C under 95% air and 5% CO2 until 80–90% confluence was attained. Afterwards, cell culture was wounded with a 1 mL pipette tip, washed twice with PBS (155 mM NaCl, 1.5 mM KH2PO4, 2.7 mM NaH2PO4, pH 7.2) and subsequently incubated at 37°C with fresh non-serum DMEM. Cellular migration images were taken in an inverted microscope (Zeiss, Thornwood, NY, USA) after 0 and 24 h incubation time. Using a graduated reticule (Zeiss, Thornwood, NY, USA), cellular migration was assessed from the petri dish’s border to its center distance travelled.
The Aur concentration added was 1.7, 0.8 and 2 μM for HeLa, MDA-MB-231 and MDA-MB-468 cells, respectively. n = 3; *p < 0.05, **p<0.01 vs. Control (Non-treated cells).

Cc1ccc(Cl)c(Nc2ccccc2C(=O)O)c1Cl [MA, Meclofenamic acid]
OxPhos flux (MDA-MB-468 cells): 4.8 ± 0.8 nmol O2 min^-1 mg protein^-1 | Net State 3 oxygen consumption rate (Rat Heart Mitochondria; 10 μM MA): 48 ± 83 | Pseudo State 4 oxygen consumption rate (Rat Heart Mitochondria; 10 μM MA): 143 ± 42 (3) | RC (Rat Heart Mitochondria; 10 μM MA): 1.4 ±0.6 (3) | State 3 oxygen consumption rate (Rat Heart Mitochondria; 10 μM MA): 177 ± 56 (3) | State 4 oxygen consumption rate (Rat Heart Mitochondria; 10 μM MA): 126 ± 16 (3) | Net State 3 oxygen consumption rate (Rat Heart Mitochondria; 50 μM MA): 12.5± 22 | Pseudo State 4 oxygen consumption rate (Rat Heart Mitochondria; 50 μM MA): 134 ± 9.5 (3) | RC (Rat Heart Mitochondria; 50 μM MA): 1 (3) | State 3 oxygen consumption rate (Rat Heart Mitochondria; 50 μM MA): 139 ± 22 (3) | State 4 oxygen consumption rate (Rat Heart Mitochondria; 50 μM MA): 139 ± 22 (3)

CC(=O)OC[C@H]1O[C@@H]([S-])[C@H](OC(C)=O)[C@@H](OC(C)=O)[C@@H]1OC(C)=O.CCP(CC)CC.[Au+] [Aur, [1-(thio-κS)-β-D-glucopyranose-2,3,4,6-tetraacetyl] (triethylphosphine)-gold]
IC50 (Breast MDA-MB-468 cells; Breast MDA-MB-468, 24 h, read-out: IC50 for proliferation cell rate): 2 ± 1 µM | TI ratio (3T3/ cancer cells) (Breast MDA-MB-468 cells; IC50 3T3 / IC50 MDA-MB-468): 21 | TI ratio (H9C2/cancer cells) (Breast MDA-MB-468 cells; IC50 H9C2 / IC50 MDA-MB-468): 39 | IC50 (Colorectal COLO205 cells; Colorectal COLO205, 24 h, read-out: IC50 for proliferation cell rate): 6 ± 2 µM | TI ratio (3T3/ cancer cells) (Colorectal COLO205 cells; IC50 3T3 / IC50 COLO 205): 7 | TI ratio (H9C2/cancer cells) (Colorectal COLO205 cells; IC50 H9C2 / IC50 COLO 205): 13 | Glycolysis flux (HeLa cells; +Aur 1.7 μM, 24 h): 4 ± 3 (3) nmol lactate min^-1 mg protein^-1 | glycolytic flux inhibition (HeLa cells; Aur alone (Table 2)): 75% | Glycolysis flux (MDA-MB-231 cells): 3 ± 2 (3) nmol lactate min^-1 mg protein^-1 | inhibition of migration [1]: 90–95%
